# Laboratory results taken from ChEMBL document CHEMBL4351009, “hERG optimizations of IMB1603, discovery of alternative benzothiazinones as new antitubercular agents” (Eur J Med Chem, 2019).
# Legend:
# [1] = test system: Mycobacterium tuberculosis; experiment: Antimycobacterial activity against multidrug resistance Mycobacterium tuberculosis 16883 clinical isolate assessed as reduction in bacterial cell viability incubated for 7 days by microplate alamar blue assay; format: functional; settings: Mycobacterium tuberculosis, 16883, 168 h
# [2] = test system: Mycobacterium tuberculosis; experiment: Antimycobacterial activity against multidrug resistance Mycobacterium tuberculosis 16995 clinical isolate assessed as reduction in bacterial cell viability incubated for 7 days by microplate alamar blue assay; format: functional; settings: Mycobacterium tuberculosis, 16995, 168 h
Structure (SMILES),MIC [1] [µM],MIC [2] [µM]
NNC(=O)c1ccncc1 [ISONIAZID],> 40,> 40
O=c1nc(N2CCC3(CCN(c4ccc(F)cc4)C3)CC2)sc2c([N+](=O)[O-])cc(C(F)(F)F)cc12,< 0.035,< 0.035
O=c1nc(N2CCN(CC3CCCCC3)CC2)sc2c([N+](=O)[O-])cc(C(F)(F)F)cc12 [MACOZINONE],< 0.035,< 0.035
CO[C@H]1/C=C/O[C@@]2(C)Oc3c(C)c(O)c4c(O)c(c(/C=N/N5CCN(C)CC5)c(O)c4c3C2=O)NC(=O)/C(C)=C\C=C\[C@H](C)[C@H](O)[C@@H](C)[C@@H](O)[C@@H](C)[C@H](OC(C)=O)[C@@H]1C [RIFAMPIN],> 40,> 40
O=c1nc(N2CC3CCC2CN3Cc2ccc(F)cc2)sc2c([N+](=O)[O-])cc(C(F)(F)F)cc12 (stereo not given),0.062,< 0.035
